Test results published in PMC8689651, “Chemical Mapping Exposes the Importance of Active Site Interactions in Governing the Temperature Dependence of Enzyme Turnover” (ACS Catalysis, 2021).

Biological target: T1, ssGDH (glucose dehydrogenase from Sulfolobus solfataricus) (Saccharolobus solfataricus, UniProt O93715)
T1 construct: gene gdh; full-length, recombinant from pET3a, heat step (70 °C), anion exchange and gel filtration, no tag mentioned; homotetramer; five Trp per monomer
Experiment: steady-state NADPH formation at […] nm
Type: biochemical
Conditions: apparent substrate inhibition; co-substrate NADP+; 100 mM HEPES pH 8; temperature not stated with the value

T1 sequence (O93715 whole entry): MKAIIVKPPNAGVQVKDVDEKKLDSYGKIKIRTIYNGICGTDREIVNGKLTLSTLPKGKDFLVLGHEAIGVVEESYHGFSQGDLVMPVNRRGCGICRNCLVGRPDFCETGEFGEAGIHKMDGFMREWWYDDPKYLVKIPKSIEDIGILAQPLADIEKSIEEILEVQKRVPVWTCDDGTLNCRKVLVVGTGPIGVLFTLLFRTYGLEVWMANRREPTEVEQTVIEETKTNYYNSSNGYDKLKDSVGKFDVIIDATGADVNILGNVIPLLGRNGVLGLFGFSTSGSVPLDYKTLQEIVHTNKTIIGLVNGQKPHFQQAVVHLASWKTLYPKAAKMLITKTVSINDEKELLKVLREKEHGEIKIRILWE

- Ki: 29.5 ± 8.7 mM
Compound: OC[C@@H]1C[C@H](O)[C@@H](O)C(O)O1 (stereo partly drawn) [4-deoxy, 4-deoxy-D-glucose]
